These results are taken from patent publication US20250163057A1, “DCN-1 MODULATING COMPOUNDS AND METHODS OF USE THEREOF” (Cellarity, Inc., priority 2023, published 2025).

The target in assay [1] is DCN1 (DCUND1) protein PONY domain (Homo sapiens (Human), UniProt Q96GG9). Nature of the assay: TR-FRET assay, DCN1 binding with FAM-labeled probe. In outline: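 Tb-DCN1 PONY domain (E. coli, biotin/streptavidin-Tb); FAM-labelled non-covalent inhibitor probe; TritonX buffer, 200 mM NaCl; 5 nM DCN1 + 20 nM probe or 0.31 nM DCN1 + 900 nM total probe; 0.1% DMSO; TR-FRET read 1, 5, 24 hrs.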
Sequence of DCN1 (DCUND1) protein PONY domain (Q96GG9 60-248): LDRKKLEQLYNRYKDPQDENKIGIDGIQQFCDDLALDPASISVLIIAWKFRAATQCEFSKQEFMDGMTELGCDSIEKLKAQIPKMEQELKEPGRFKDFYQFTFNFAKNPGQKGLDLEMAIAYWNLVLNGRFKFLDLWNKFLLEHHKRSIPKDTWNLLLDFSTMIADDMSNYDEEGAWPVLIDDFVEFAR
A general note: In TR-FRET formats the signal depends on donor and acceptor labels being close together.

The test system of assay [2] is fetal hemoglobin protein. In words: HbF HPLC Cell Culture Assay. Format: cell-based. The following applies: for EC50: 336 h, HbF induction, Day 14 of culture; for Hemoglobin HPLC Ymax obs (%): relative to a control compound. On the procedure: A Cell Culture Assay was performed to evaluate the ability of compounds to induce fetal hemoglobin in a cell culture. The amount fetal hemoglobin protein induced was measured by HPLC.
Cell culture began on Day −4 (thaw day). Thaw buffer was prepared by sterile filtering 6 mL of Human Serum Albumin and 144 mL of PBS to make sterile 1% I/PBS. Cells were removed from liquid nitrogen storage and mostly thawed in a 37° C. water bath. Once the ice in the cryovials was melted, cells were transferred quickly into a 50 mL conical tube. Cryovial was rinsed once with thaw buffer and buffer was transferred over to the conical tube as well. Next, doubling volumes of thaw buffer was added to the conical and gently swirled for ˜30 seconds to one minute (for example: 2 mL was added and swirled, then 4 mL, then 8 mL, and so on) until the volume in the conical is 32 mL. Cells and buffer were centrifuged at 300G for 8 minutes, and the supernatant was aspirated. Another 32 mL of thaw buffer was added slowly, swirling the tube. The tube was again centrifuged at 300G for 8 minutes and the supernatant was aspirated. Cells were counted by resuspending in 1 mL of expansion media and counting with AOPI to determine the concentration of cells/mL.
On day 2, Passage & Treatment Day, each cell culture well was counted. Next fresh CD34 Expansion Media was made which contained StemSpan SFEM, CC100 and TPO all from StemCell technologies. Appropriate volume of cells was collected, centrifuged at 300 g and resuspended in fresh media. Cells were plated in treatment format at a density of 200,000 cells/ml, 25,000 cells/well. Finally, they were treated with test compounds as well as positive and negative controls.
On Days 0, 3 & 5 the same process was carried out. First, each cell culture well was counted. Next Phase 1 Erythroid Differentiation Media was freshly made, which contained StemSpan SFEM, 2.5 U/ml EPO, 0.5 mg/ml Holo-TF, 1× Glutamax, 5 μl/ml chemically defined lipid mixture, 10 ng/ml insulin, 50 ng/ml SCF, 10 ng/ml IL-3. Appropriate volume of cells was collected, centrifuged at 300 g and resuspended in fresh media. Cells should now be in fresh wells at a density of 100,000 cells/ml. 60,000 cells, 60,000 cells and 100,000 cells for days 0, 3, 5 respectively. Finally, fresh compound was added to each well at each timepoint (Days 0, 3 & 5).
On Day 7 media and cell culture density changes. Each cell culture well was counted. Next, Phase 2 Erythroid Differentiation Media was freshly made, which contains StemSpan SFEM, 2.5 U/ml EPO, 0.5 mg/ml Holo-TF, 1× Glutamax, 5 μl/ml chemically defined lipid mixture, 10 ng/ml insulin, 50 ng/ml SCF. Appropriate volume of cells was collected, centrifuged at 300 g and resuspended in fresh media. Cells were plated in fresh wells at a density of 500,000 cells/ml, 300,000 cells/well. Finally, fresh compound was added to each well at Day 7 timepoint.
On Day 10 media formulation is once again changed. Each cell culture well was counted. Fresh Phase 3 Erythroid Differentiation Media was made which contains StemSpan SFEM, 2.5 U/ml EPO, 0.5 mg/ml Holo-TF, 1× Glutamax, 5 μl/ml chemically defined lipid mixture, 10 ng/ml insulin. Appropriate volume of cells was collected, centrifuged at 300 g and resuspended in fresh media. Cells were plated in fresh wells at a density of 500,000 cells/ml, 500,000 cells/well. Finally, fresh compound was added to each well at Day 10 timepoint.
On Day 12 the cell density is once again changed. Each cell culture well was counted. Fresh Phase 3 Erythroid Differentiation Media was made. Appropriate volume of cells was collected, centrifuged at 300 g and resuspended in fresh media. Cells were plated in fresh wells at a density of 1,000,000 cells/ml, 1,000,000 cells/well. Finally fresh compound was added to each well.
Day 14 (18th day of experiment) refers to the terminal day of culture. Each cell culture well was counted. Next between 150K and 650K cells were placed in a uniquely labeled 1.5 ml standard tube. […]

[3] abbreviates: 24 hr after treatment with compound, read-out: TR FRET IC50 24 hr.
The mark [4] stands for this setting: read-out: TR FRET IC50 1 hr, 1 hr after treatment with compound.
Setting [5] is: TR FRET IC50 1 hr (nM), 1 hr after treatment with compound.

Read-outs that look alike come from different tables or passages of the source.

The term IC50 denotes the concentration that inhibits the measured activity by half. On to `CCN1C(=O)[C@@H](NC(=O)c2cccc(C(F)(F)F)c2)[C@@H](c2ccc(F)cc2)c2c(C(=O)N3CCNC[C@H]3C#N)nn(C3CCOCC3)c21` [Compound I-363, N-((4S,5S)-3-((S)-2-cyanopiperazine-1-carbonyl)-7-ethyl-4-(4-fluorophenyl)-6-oxo-1-(tetrahydro-2H-pyran-4-yl)-4,5,6,7-tetrahydro-1H-pyrazolo[3,4-b]pyridin-5-yl)-3-(trifluoromethyl)benzamide], for which the half-inhibitory concentration (IC50) in assay [1] (setting [3]) and in assay [1] (setting [4]) was at most 200 nM in each case.
As a reminder, the EC50 is the concentration giving half of the maximal effect. A higher EC50 goes with weaker potency. As for `CCN1C(=O)[C@@H](NC(=O)c2cccc(C(F)(F)F)c2)[C@@H](c2ccc(F)cc2)c2c(NC(=O)C3=CCC3)nn(-c3ccccc3)c21` (racemic) [Compound I-152], in assay [2], the EC50 is over 200 nM; the “Hemoglobin HPLC Ymax obs (%)” value is “++ (Hemoglobin HPLC Ymax greater than 65.0 and less than or equal to 100.0)”. Moreover, the IC50 in assay [1] (setting [3]) is at most 200 nM. The IC50 in assay [1] (setting [4]) is at most 200 nM.
On to `C=C(CN1CCC1)C(=O)NCc1nn(-c2ccccc2)c2c1[C@@H](c1ccc(F)cc1)[C@H](NC(=O)c1cccc(C(F)(F)F)c1)C(=O)N2CC` [Compound I-139], for which the EC50 in assay [2] is at most 50 nM. In addition, the “Hemoglobin HPLC Ymax obs (%)” value in assay [2] was “++ (Hemoglobin HPLC Ymax greater than 65.0 and less than or equal to 100.0)”. Further, the concentration for half-maximal inhibition (IC50) in assay [1] (setting [3]) and in assay [1] (setting [4]) was at most 200 nM each time.
Regarding `CCN1C(=O)[C@@H](NC(=O)c2cccc(C(F)(F)F)c2)[C@@H](c2ccc(F)cc2)c2c(CNC(=O)/C=C/C(=O)OC)nn(-c3ccccc3)c21` (racemic) [Compound I-3], in assay [2], the EC50 was 50 to 200 nM; the “Hemoglobin HPLC Ymax obs (%)” value is “++ (Hemoglobin HPLC Ymax greater than 65.0 and less than or equal to 100.0)”. Besides, the 50% inhibitory concentration (IC50) in assay [1] (setting [3]) is at most 200 nM. For the same compound, the IC50 in assay [1] (setting [4]) is at most 200 nM.
In assay [2], `C=C(CN1CCC1)C(=O)NCc1nn(-c2ccccc2)c2c1[C@H](c1ccc(F)cc1)[C@H](NC(=O)c1cccc(C(F)(F)F)c1)C(=O)N2CC` (racemic) [Compound I-49, rac-N-((4R,5R)-3-((2-(azetidin-1-ylmethyl)acrylamido)methyl)-7-ethyl-4-(4-fluorophenyl)-6-oxo-1-phenyl-4,5,6,7-tetrahydro-1H-pyrazolo[3,4-b]pyridin-5-yl)-3-(trifluoromethyl)benzamide] came in with a half-maximal effective concentration (EC50) of at most 50 nM. Also, in assay [2], the “Hemoglobin HPLC Ymax obs (%)” value was “++ (Hemoglobin HPLC Ymax greater than 65.0 and less than or equal to 100.0)”. Besides, the IC50 in assay [1] (setting [3]) and in assay [1] (setting [5]) was at most 200 nM throughout.
As for `CCN1C(=O)[C@@H](NC(=O)c2cccc(C(F)(F)F)c2)[C@@H](c2ccc(F)cc2)c2c([C@@H](C)NC#N)nn(-c3ccccc3)c21` [Compound I-73, N-((4S,5S)-3-((R)-1-cyanamidoethyl)-7-ethyl-4-(4-fluorophenyl)-6-oxo-1-phenyl-4,5,6,7-tetrahydro-1H-pyrazolo[3,4-b]pyridin-5-yl)-3-(trifluoromethyl)benzamide], in assay [2], the EC50 was over 200 nM; the “Hemoglobin HPLC Ymax obs (%)” value is “++ (Hemoglobin HPLC Ymax greater than 65.0 and less than or equal to 100.0)”. Moreover, in assay [1] (setting [3]), the IC50 was at most 200 nM. For the same compound, the IC50 in assay [1] (setting [4]) was at most 200 nM.
Turning to `CCN1C(=O)[C@@H](NC(=O)c2cccc(C(F)(F)F)c2)[C@@H](c2ccc(F)cc2)c2c(C(=O)N(C)[C@H](C#N)CCN(C)C)nn(C3CCOCC3)c21` [Compound I-370], the IC50 in assay [1] (setting [3]) and in assay [1] (setting [4]) was at most 200 nM each time.
Consider `CCN1C(=O)[C@@H](NC(=O)c2cccc(C(F)(F)F)c2)[C@@H](c2ccc(F)cc2)c2c(C(=O)N3[C@H](C#N)C[C@H]4C[C@H]43)nn(-c3ccccc3)c21` [Compound I-277], for which, in assay [2], the EC50 is at most 50 nM; the “Hemoglobin HPLC Ymax obs (%)” value is “++ (Hemoglobin HPLC Ymax greater than 65.0 and less than or equal to 100.0)”. Besides, in assay [1] (setting [3]), the IC50 is at most 200 nM. Besides, the IC50 in assay [1] (setting [4]) is at most 200 nM.
Take `CCN1C(=O)[C@@H](NC(=O)c2cccc(C(F)(F)F)c2)[C@@H](c2ccc(F)cc2)c2c(C(=O)N3CCC[C@H]3C#N)nn(-c3ccccc3)c21` [Compound I-278]: in assay [2], the EC50 was over 200 nM; the “Hemoglobin HPLC Ymax obs (%)” value was “+ (Hemoglobin HPLC Ymax greater than or equal to 0.0 and less than or equal to 65.0)”. Moreover, the IC50 in assay [1] (setting [3]) is at most 200 nM. The concentration for half-maximal inhibition (IC50) in assay [1] (setting [5]) was in the range of 200 to 1000 nM.
Regarding `CCN1C(=O)[C@@H](NC(=O)c2cccc(C(F)(F)F)c2)[C@@H](c2ccc(F)cc2)c2c(C(=O)N3CCNCC3C#N)nn(C3CCOCC3)c21` (stereo partly shown) [Compound I-334], the EC50 in assay [2] was in the range of 50 to 200 nM. Further, in assay [2], the “Hemoglobin HPLC Ymax obs (%)” value was “++ (Hemoglobin HPLC Ymax greater than 65.0 and less than or equal to 100.0)”. Moreover, the half-maximal inhibitory concentration (IC50) in assay [1] (setting [3]) and in assay [1] (setting [4]) was at most 200 nM throughout.
Turning to `CCN1C(=O)[C@@H](NC(=O)c2cccc(C(F)(F)F)c2)[C@@H](C2CC2)c2c(C(=O)N3CS(=O)(=O)C[C@H]3C#N)nn(C3CCOCC3)c21` [Compound I-617], the concentration for half-maximal inhibition (IC50) in assay [1] (setting [3]) and in assay [1] (setting [4]) was at most 200 nM each time.
In the case of `CCN1C(=O)[C@@H](NC(=O)c2cccc(C(F)(F)F)c2)[C@@H](C2CC2)c2c(C(=O)N3CCNC[C@H]3C#N)nn(-c3ccccc3)c21` [Compound I-383], the IC50 in assay [1] (setting [3]) and in assay [1] (setting [4]) was at most 200 nM throughout.
For the compound `CCN1C(=O)[C@@H](NC(=O)c2cccc(C(F)(F)F)c2)[C@@H](c2ccc(F)cc2)c2c(C(=O)N(C)[C@@H](C#N)CCN(C)C)nn(C3CCOCC3)c21` [Compound I-369], the half-inhibitory concentration (IC50) in assay [1] (setting [3]) and in assay [1] (setting [4]) was at most 200 nM throughout.
Regarding `CCc1cccc(C(=O)N[C@@H]2C(=O)N(CC)c3c(c(C(=O)N4[C@H](C#N)C[C@H]5C[C@H]54)nn3C3CCOCC3)[C@@H]2C2CC2)c1` [Compound I-552, N-((4S,5S)-3-((1R,3S,5R)-3-cyano-2-azabicyclo[3.1.0]hexane-2-carbonyl)-4-cyclopropyl-7-ethyl-6-oxo-1-(tetrahydro-2H-pyran-4-yl)-4,5,6,7-tetrahydro-1H-pyrazolo[3,4-b]pyridin-5-yl)-3-ethylbenzamide], the IC50 in assay [1] (setting [3]) and in assay [1] (setting [4]) was at most 200 nM in each case.
Regarding `CCN1C(=O)[C@@H](NC(=O)c2cccc(C(F)(F)F)c2)[C@@H](C2CC2)c2c(C(=O)N3CCS(=O)(=O)C[C@H]3C#N)nn(C3CCOCC3)c21` (mixture of isomers) [Compound I-379], the IC50 in assay [1] (setting [3]) and in assay [1] (setting [4]) was at most 200 nM throughout.
Take `CCN1C(=O)[C@@H](NC(=O)c2cccc(C(F)(F)F)c2)[C@@H](c2ccc(F)cc2)c2c(C(=O)N3CCC[C@H]3C#N)nn(-c3ccccc3)c21` (mixture of isomers) [Compound I-34]: the “Hemoglobin HPLC Ymax obs (%)” value in assay [2] was “++ (Hemoglobin HPLC Ymax greater than 65.0 and less than or equal to 100.0)”.
Take `CCN1C(=O)[C@@H](NC(=O)c2cccc(C(F)(F)F)c2)[C@@H](C2CC2)c2c(C(=O)N3CCNC[C@H]3C#N)nn(C3CCOCC3)c21` [Compound I-582]: the IC50 in assay [1] (setting [3]) and in assay [1] (setting [4]) was at most 200 nM each time.
